Experimental data as given in publication PMC5218480 (PLoS ONE, 2017).

System: MV-4-11 cells
Test: Gene expression microarray analysis (Affymetrix PrimeView) and GSEA
Assay type: cell-based, human
Parameters: RFU PODN (11730768_x_at) / Fold change /veh PODN (11730768_x_at) / RFU LINC00158 (11744669_a_at) / Fold change /veh LINC00158 (11744669_a_at) / RFU DUSP10 (11751237_a_at) / Fold change /veh DUSP10 (11751237_a_at) / RFU ID3 (11757404_x_at) / Fold change /veh ID3 (11757404_x_at) / RFU PLEKHG5 (11737974_s_at) / Fold change /veh PLEKHG5 (11737974_s_at) / RFU LRRC4B (11730491_at) / Fold change /veh LRRC4B (11730491_at) / RFU GIMAP4 (11747438_a_at) / Fold change /veh GIMAP4 (11747438_a_at) / RFU KRT8 (11758183_x_at) / Fold change /veh KRT8 (11758183_x_at) / RFU CNN1 (11734310_a_at) / Fold change /veh CNN1 (11734310_a_at) / RFU VPS37D (11726825_at) / Fold change /veh VPS37D (11726825_at) / RFU C10orf10 (11716522_x_at) / Fold change /veh C10orf10 (11716522_x_at) / RFU KIR2DL2 /// KIR2DL4 /// KIR2DL5A /// KIR2DL5B /// KIR2DS1 /// KIR2DS2 /// KIR2DS3 /// KIR2DS4 /// KIR3DL3 /// KIR3DL3 /// KIR3DS1 (11738374_at) / Fold change /veh KIR2DL2 /// KIR2DL4 /// KIR2DL5A /// KIR2DL5B /// KIR2DS1 /// KIR2DS2 /// KIR2DS3 /// KIR2DS4 /// KIR3DL3 /// KIR3DL3 /// KIR3DS1 (11738374_at) / RFU C1QL1 (11718748_at) / Fold change /veh C1QL1 (11718748_at) / RFU TMPRSS4 (11747572_a_at) / Fold change /veh TMPRSS4 (11747572_a_at) / RFU HAMP (11756126_x_at) / Fold change /veh HAMP (11756126_x_at) / RFU RNFT2 (11725882_a_at) / Fold change /veh RNFT2 (11725882_a_at) / RFU NR4A2 (11747474_a_at) / Fold change /veh NR4A2 (11747474_a_at) / RFU ABCC12 (11746883_a_at) / Fold change /veh ABCC12 (11746883_a_at) / RFU TMEM136 (11760407_x_at) / Fold change /veh TMEM136 (11760407_x_at) / RFU CLDN22 /// WWC2 (11732394_at) / Fold change /veh CLDN22 /// WWC2 (11732394_at) / RFU HLA-DPB1 (11760878_x_at) / Fold change /veh HLA-DPB1 (11760878_x_at) / RFU SPINT1 (11716480_a_at) / Fold change /veh SPINT1 (11716480_a_at) / RFU GAP43 (11754022_s_at) / Fold change /veh GAP43 (11754022_s_at) / RFU A4GNT (11735810_at) / Fold change /veh A4GNT (11735810_at) / RFU PRB3 (11715151_x_at) / Fold change /veh PRB3 (11715151_x_at) / RFU TUBB4B (11761932_at) / Fold change /veh TUBB4B (11761932_at) / RFU CAPN14 (11732068_a_at) / Fold change /veh CAPN14 (11732068_a_at) / RFU TMCC2 (11721928_a_at) / Fold change /veh TMCC2 (11721928_a_at) / RFU IRGQ (11745062_a_at) / Fold change /veh IRGQ (11745062_a_at) / RFU FAM174B (11720279_a_at) / Fold change /veh FAM174B (11720279_a_at) / RFU TMPRSS4 (11748680_a_at) / Fold change /veh TMPRSS4 (11748680_a_at) / RFU FAM212B (11763350_a_at) / Fold change /veh FAM212B (11763350_a_at) / RFU PLEKHG5 (11743358_a_at) / Fold change /veh PLEKHG5 (11743358_a_at) / RFU ZSCAN30 (11745921_a_at) / Fold change /veh ZSCAN30 (11745921_a_at) / RFU CMKLR1 (11741424_a_at) / Fold change /veh CMKLR1 (11741424_a_at) / RFU LOC101060620 /// MAPK8IP1 (11723275_at) / Fold change /veh LOC101060620 /// MAPK8IP1 (11723275_at) / RFU SPTSSB (11747773_x_at) / Fold change /veh SPTSSB (11747773_x_at) / RFU PRSS12 (11739890_at) / Fold change /veh PRSS12 (11739890_at) / RFU BIN1 (11741810_x_at) / Fold change /veh BIN1 (11741810_x_at) / RFU WNT11 (11732464_a_at) / Fold change /veh WNT11 (11732464_a_at) / RFU C10orf10 (11716521_a_at) / Fold change /veh C10orf10 (11716521_a_at) / RFU C5orf56 (11738089_at) / Fold change /veh C5orf56 (11738089_at) / RFU CYB561 (11721691_x_at) / Fold change /veh CYB561 (11721691_x_at) / RFU ANKRD19P (11752326_a_at) / Fold change /veh ANKRD19P (11752326_a_at) / RFU OR2T12 /// OR2T33 /// OR2T8 (11738714_s_at) / Fold change /veh OR2T12 /// OR2T33 /// OR2T8 (11738714_s_at) / RFU VCAN (11748164_a_at) / Fold change /veh VCAN (11748164_a_at) / RFU JSRP1 (11732532_at) / Fold change /veh JSRP1 (11732532_at) / RFU KRTAP10-11 (11738290_x_at) / Fold change /veh KRTAP10-11 (11738290_x_at) / RFU MYO3A (11730013_a_at) / Fold change /veh MYO3A (11730013_a_at) / RFU EBF3 (11725865_a_at) / Fold change /veh EBF3 (11725865_a_at) / RFU CAMK2N1 (11719241_x_at) / Fold change /veh CAMK2N1 (11719241_x_at) / RFU C5orf56 (11738088_a_at) / Fold change /veh C5orf56 (11738088_a_at) / RFU OLFML3 (11715873_a_at) / Fold change /veh OLFML3 (11715873_a_at) / RFU LOC100653217 /// NTM (11731650_a_at) / Fold change /veh LOC100653217 /// NTM (11731650_a_at) / RFU MAPK11 (11762145_a_at) / Fold change /veh MAPK11 (11762145_a_at) / RFU FIZ1 (11724087_x_at) / Fold change /veh FIZ1 (11724087_x_at) / RFU OASL (11726364_x_at) / Fold change /veh OASL (11726364_x_at) / RFU SOX15 (11748057_x_at) / Fold change /veh SOX15 (11748057_x_at) / RFU CD79A (11719716_a_at) / Fold change /veh CD79A (11719716_a_at) / RFU HIST1H1D (11736915_at) / Fold change /veh HIST1H1D (11736915_at) / RFU CASKIN2 (11723855_a_at) / Fold change /veh CASKIN2 (11723855_a_at) / RFU LOC730098 (11760151_x_at) / Fold change /veh LOC730098 (11760151_x_at) / RFU OR4N2 (11742367_at) / Fold change /veh OR4N2 (11742367_at) / RFU PRRT2 (11749266_a_at) / Fold change /veh PRRT2 (11749266_a_at) / RFU SNX32 (11753110_a_at) / Fold change /veh SNX32 (11753110_a_at) / RFU CDHR5 (11726645_a_at) / Fold change /veh CDHR5 (11726645_a_at) / RFU RCAN1 (11760418_a_at) / Fold change /veh RCAN1 (11760418_a_at) / RFU FAM167A (11723789_a_at) / Fold change /veh FAM167A (11723789_a_at) / RFU FAM26E (11764081_at) / Fold change /veh FAM26E (11764081_at) / RFU ISYNA1 (11749810_s_at) / Fold change /veh ISYNA1 (11749810_s_at) / RFU ACY1 (11761880_at) / Fold change /veh ACY1 (11761880_at) / RFU 11764098_at / Fold change /veh 11764098_at / RFU SAMD14 (11745864_x_at) / Fold change /veh SAMD14 (11745864_x_at) / RFU NPB (11741838_a_at) / Fold change /veh NPB (11741838_a_at) / RFU TMPRSS6 (11731388_a_at) / Fold change /veh TMPRSS6 (11731388_a_at) / RFU KRTAP10-2 (11738614_at) / Fold change /veh KRTAP10-2 (11738614_at) / RFU ARHGAP8 /// PRR5-ARHGAP8 (11727945_x_at) / Fold change /veh ARHGAP8 /// PRR5-ARHGAP8 (11727945_x_at) / RFU KRTAP5-7 /// NADSYN1 (11734609_at) / Fold change /veh KRTAP5-7 /// NADSYN1 (11734609_at) / RFU RASL12 (11751679_a_at) / Fold change /veh RASL12 (11751679_a_at) / RFU CDKN2B (11736163_a_at) / Fold change /veh CDKN2B (11736163_a_at) / RFU PRF1 (11729649_at) / Fold change /veh PRF1 (11729649_at) / RFU, ZNF638 /// ZNF638-IT1 / Fold change vs veh, ZNF638 /// ZNF638-IT1 / RFU, PANK3 / Fold change vs veh, PANK3 / RFU, SH3YL1 / Fold change vs veh, SH3YL1 / RFU, ZEB2 / Fold change vs veh, ZEB2 / RFU, NRIP1 / Fold change vs veh, NRIP1 / RFU, PTTG1IP / Fold change vs veh, PTTG1IP / RFU, CAPN2 / Fold change vs veh, CAPN2 / RFU, MED14 / Fold change vs veh, MED14 / RFU, SNORA58 / Fold change vs veh, SNORA58 / RFU, C1orf63 / Fold change vs veh, C1orf63 / RFU, LRRFIP1 / Fold change vs veh, LRRFIP1 / RFU, NDUFAF7 / Fold change vs veh, NDUFAF7 / RFU, SLC12A2 / Fold change vs veh, SLC12A2 / RFU, IBTK / Fold change vs veh, IBTK / RFU, ESF1 / Fold change vs veh, ESF1 / Fold change vs veh, TMEM50B / RFU, TAOK1 / Fold change vs veh, TAOK1 / RFU, ACBD3 / Fold change vs veh, ACBD3 / RFU, TMA16 / Fold change vs veh, TMA16 / RFU, RWDD3 / Fold change vs veh, RWDD3 / RFU, BCAT1 / Fold change vs veh, BCAT1 / RFU, EDEM3 / Fold change vs veh, EDEM3 / RFU, TMEM33 / Fold change vs veh, TMEM33 / RFU, WDR75 / Fold change vs veh, WDR75 / RFU, AHCTF1 / Fold change vs veh, AHCTF1 / RFU, TFRC / Fold change vs veh, TFRC / RFU, ZDHHC17 / Fold change vs veh, ZDHHC17 / RFU, NOM1 / Fold change vs veh, NOM1 / RFU, ARL8B / Fold change vs veh, ARL8B / RFU, ZBTB11 / Fold change vs veh, ZBTB11 / RFU, TAMM41 / Fold change vs veh, TAMM41 / RFU, KIAA1704 /// LOC100996395 / Fold change vs veh, KIAA1704 /// LOC100996395 / RFU, ING1 / Fold change vs veh, ING1 / RFU, TRMT61B / Fold change vs veh, TRMT61B / RFU, FUBP3 / Fold change vs veh, FUBP3 / RFU, TP53 / Fold change vs veh, TP53 / RFU, TNKS2 / Fold change vs veh, TNKS2 / RFU, ZFP14 / Fold change vs veh, ZFP14 / RFU, ACTR2 / Fold change vs veh, ACTR2 / RFU, PPP3R1 / Fold change vs veh, PPP3R1 / RFU, PIK3R1 / Fold change vs veh, PIK3R1 / RFU, HNRNPA1 / Fold change vs veh, HNRNPA1 / RFU, RNF170 / Fold change vs veh, RNF170 / RFU, ZNF28 / Fold change vs veh, ZNF28 / RFU, RNGTT / Fold change vs veh, RNGTT / RFU, OGT / Fold change vs veh, OGT / RFU, BRD1 / Fold change vs veh, BRD1 / RFU, MARS / Fold change vs veh, MARS / RFU, ZNF655 / Fold change vs veh, ZNF655 / RFU, FAHD1 / Fold change vs veh, FAHD1 / RFU, BDP1 / Fold change vs veh, BDP1 / RFU, LRRCC1 / Fold change vs veh, LRRCC1 / RFU, ARID1A / Fold change vs veh, ARID1A / RFU, ZNF146 / Fold change vs veh, ZNF146 / RFU, ZNF330 / Fold change vs veh, ZNF330 / RFU, GPN3 / Fold change vs veh, GPN3 / RFU, C9orf123 / Fold change vs veh, C9orf123 / RFU, N4BP2L2 / Fold change vs veh, N4BP2L2 / RFU, ARFIP1 / Fold change vs veh, ARFIP1 / RFU, FAM179B / Fold change vs veh, FAM179B / RFU, BCL10 / Fold change vs veh, BCL10 / RFU, UHRF1BP1L / Fold change vs veh, UHRF1BP1L / RFU, BET1 / Fold change vs veh, BET1 / RFU, CNOT2 / Fold change vs veh, CNOT2 / RFU, ZNF268 / Fold change vs veh, ZNF268 / Fold change vs veh, ZNF507 / RFU, DGCR2 / Fold change vs veh, DGCR2 / RFU, WDSUB1 / Fold change vs veh, WDSUB1 / Fold change vs veh, HSP90B1 /// MIR3652 / RFU, ADSS / Fold change vs veh, ADSS / RFU, GK / Fold change vs veh, GK / RFU, ZNF148 / Fold change vs veh, ZNF148 / RFU, TAF9 / Fold change vs veh, TAF9 / RFU, SLC1A5 / Fold change vs veh, SLC1A5 / RFU, SLMO2 / Fold change vs veh, SLMO2 / RFU, ABCC4 / Fold change vs veh, ABCC4 / RFU, LOC101060439 /// RAP1B / Fold change vs veh, LOC101060439 /// RAP1B / RFU, RFX7 / Fold change vs veh, RFX7 / RFU, GTPBP10 / Fold change vs veh, GTPBP10 / RFU, CNEP1R1 / Fold change vs veh, CNEP1R1 / RFU, BIVM-ERCC5 /// ERCC5 / Fold change vs veh, BIVM-ERCC5 /// ERCC5 / RFU, ILF3 / Fold change vs veh, ILF3 / RFU 11762660_at / Fold change /veh 11762660_at / RFU VCAN (11757783_s_at) / Fold change /veh VCAN (11757783_s_at) / RFU DDX43 (11728927_at) / Fold change /veh DDX43 (11728927_at) / RFU KRT8 (11758188_x_at) / Fold change /veh KRT8 (11758188_x_at) / RFU NKD1 (11759106_at) / Fold change /veh NKD1 (11759106_at) / RFU SRD5A1 (11742802_a_at) / Fold change /veh SRD5A1 (11742802_a_at) / RFU TPSAB1 /// TPSB2 (11721975_s_at) / Fold change /veh TPSAB1 /// TPSB2 (11721975_s_at) / RFU GSTM3 (11746129_a_at) / Fold change /veh GSTM3 (11746129_a_at) / RFU IL23R (11737362_x_at) / Fold change /veh IL23R (11737362_x_at) / RFU TMEM51 (11727254_a_at) / Fold change /veh TMEM51 (11727254_a_at) / RFU PIWIL2 (11732686_x_at) / Fold change /veh PIWIL2 (11732686_x_at) / RFU ORM1 (11744905_x_at) / Fold change /veh ORM1 (11744905_x_at) / RFU CCDC152 (11743942_at) / Fold change /veh CCDC152 (11743942_at) / RFU ECM1 (11717891_a_at) / Fold change /veh ECM1 (11717891_a_at) / RFU IL23R (11748794_a_at) / Fold change /veh IL23R (11748794_a_at) / RFU TNFAIP8L3 (11732012_x_at) / Fold change /veh TNFAIP8L3 (11732012_x_at) / RFU MBOAT4 (11741988_at) / Fold change /veh MBOAT4 (11741988_at) / RFU 11764193_at / Fold change /veh 11764193_at / RFU TMEM53 (11763286_at) / Fold change /veh TMEM53 (11763286_at) / RFU MAGEB2 (11727129_at) / Fold change /veh MAGEB2 (11727129_at) / RFU TMEM200A (11744735_a_at) / Fold change /veh TMEM200A (11744735_a_at) / RFU CCDC152 (11751479_a_at) / Fold change /veh CCDC152 (11751479_a_at) / RFU FAM211A (11726209_a_at) / Fold change /veh FAM211A (11726209_a_at) / RFU RGS16 (11746705_a_at) / Fold change /veh RGS16 (11746705_a_at) / RFU VCAN (11755009_s_at) / Fold change /veh VCAN (11755009_s_at) / RFU RHOB (11743442_s_at) / Fold change /veh RHOB (11743442_s_at) / RFU RGS16 (11720943_a_at) / Fold change /veh RGS16 (11720943_a_at) / RFU RGS16 (11720944_at) / Fold change /veh RGS16 (11720944_at) / RFU, VPS4B / Fold change vs veh, VPS4B / RFU, CREB1 / Fold change vs veh, CREB1 / RFU, DNAJC13 / Fold change vs veh, DNAJC13 / RFU, GNAQ / Fold change vs veh, GNAQ / RFU, CDK5R1 / Fold change vs veh, CDK5R1 / RFU, ZRANB3 / Fold change vs veh, ZRANB3 / RFU, CUL4A / Fold change vs veh, CUL4A / RFU, CCNY / Fold change vs veh, CCNY / RFU, UFL1 / Fold change vs veh, UFL1 / RFU, COG3 / Fold change vs veh, COG3 / RFU, DIAPH2 / Fold change vs veh, DIAPH2 / RFU, SKA2 / Fold change vs veh, SKA2 / RFU, AFF3 / Fold change vs veh, AFF3 / RFU, LMF1 / Fold change vs veh, LMF1 / RFU, IPO11 / Fold change vs veh, IPO11 / RFU, DFFB / Fold change vs veh, DFFB / RFU, FOXP1 / Fold change vs veh, FOXP1 / RFU, CARD8 / Fold change vs veh, CARD8 / RFU, STRN3 / Fold change vs veh, STRN3 / RFU, ADK / Fold change vs veh, ADK / RFU, RASSF2 / Fold change vs veh, RASSF2 / RFU, WIPF1 / Fold change vs veh, WIPF1 / RFU, LARP1B / Fold change vs veh, LARP1B / RFU, RASA1 / Fold change vs veh, RASA1 / RFU, RB1 / Fold change vs veh, RB1 / RFU, PPFIA1 / Fold change vs veh, PPFIA1 / RFU, MAT2A / Fold change vs veh, MAT2A / RFU, CCT5 / Fold change vs veh, CCT5 / RFU, WDR92 / Fold change vs veh, WDR92 / RFU, CUX1 / Fold change vs veh, CUX1 / RFU, TTC7A / Fold change vs veh, TTC7A / RFU, TMEM135 / Fold change vs veh, TMEM135 / RFU, DEPTOR / Fold change vs veh, DEPTOR / RFU, CPM / Fold change vs veh, CPM / RFU, DNAJB6 / Fold change vs veh, DNAJB6 / RFU, CACNA2D3 / Fold change vs veh, CACNA2D3 / RFU, DTX4 / Fold change vs veh, DTX4 / RFU, TFCP2 / Fold change vs veh, TFCP2 / RFU, GMCL1 /// GMCL1P1 / Fold change vs veh, GMCL1 /// GMCL1P1 / RFU, AEBP2 / Fold change vs veh, AEBP2 / RFU, SNHG1 /// SNORD22 /// SNORD25 /// SNORD26 /// SNORD27 /// SNORD28 /// SNORD29 /// SNORD31 / Fold change vs veh, SNHG1 /// SNORD22 /// SNORD25 /// SNORD26 /// SNORD27 /// SNORD28 /// SNORD29 /// SNORD31 / Fold change (Aza/veh), C12orf56 (ProbeSet 11735607_a_at) / Fold change (ACY-1035/veh), C12orf56 (ProbeSet 11735607_a_at) / Fold change (Aza/veh), FGFR1OP (ProbeSet 11751329_s_at) / Fold change (ACY-1035/veh), FGFR1OP (ProbeSet 11751329_s_at) / Fold change (Aza/veh), VPS36 (ProbeSet 11739960_a_at) / Fold change (ACY-1035/veh), VPS36 (ProbeSet 11739960_a_at) / RFU SYPL1 (11715823_x_at) / Fold change /veh SYPL1 (11715823_x_at) / RFU IGFBP7 (11715501_s_at) / Fold change /veh IGFBP7 (11715501_s_at) / RFU REEP3 (11722064_at) / Fold change /veh REEP3 (11722064_at) / RFU IGLL1 (11728026_x_at) / Fold change /veh IGLL1 (11728026_x_at): dose or concentration left out as unconfirmed
Conditions: MV-4-11 cells, 48 hours

In the case of `Nc1ccc(-c2cccs2)cc1NC(=O)c1ccc2c(c1)cc(C1CC1)n2CCN1CCOCC1` [ACY-1035], the “RFU PLEKHG5 (11743358_a_at)” value is reported as 36.52 RFU.
